Molecules are shown by their SMILES. Converted amounts (≈) assume the structure as drawn.

The results in this text go back to patent publication US11208421B2, “2-carboxypenam compound or salt thereof, pharmaceutical composition containing novel 2-carboxypenam compound or salt thereof, and applications thereof” (priority 2017, dated 2021).

What all share (format): cell-based
The test system of assay [1] is Pseudomonas aeruginosa AmpC derepression mutant strain S-3028. As to the kind of experiment: Antibacterial activity evaluation test (MIC), broth microdilution, AmpC derepression mutant strain S-3028. Particulars: for MIC Pseudomonas aeruginosa strain S-3028: AmpC derepression mutant, cation-adjusted Mueller Hinton medium, 35° C., 16 to 20 hours; for MIC: Pseudomonas aeruginosa, read-out: MIC Pseudomonas aeruginosa strain S-3028. On the procedure:
(§1) The minimum inhibitory concentration (MIC) was measured according to the Clinical and Laboratory Standards Institute (CLSI) standard method by using the following broth microdilution method.
(§2) As bacteria, a Pseudomonas aeruginosa strain ATCC 27853, a Pseudomonas aeruginosa AmpC derepression mutant strain S-3028, and a Pseudomonas aeruginosa IMP-1-producing strain S-2838 were used.
(§3) The Pseudomonas aeruginosa AmpC-derepression mutant strain S-3028 or the Pseudomonas aeruginosa IMP-1-producing strain S-2838 was cultured on a Mueller Hinton agar medium overnight, thereby preparing test bacterial cells. The obtained test bacterial cells were scraped off, suspended to yield 0.5 McFarland equivalence, and diluted 10-fold to obtain an inoculum. A cation-adjusted Mueller Hinton medium containing a test compound was inoculated with 0.0005 mL of the inoculum, and the cells were cultured at 35° C. for 16 to 20 hours. The minimum drug concentration at which the growth of bacteria was not visually observed was defined as MIC.
(In broth dilution the organism is exposed to a series of concentrations in liquid medium.)

Assay [2] deals with Pseudomonas aeruginosa strain ATCC 27853. As to the kind of experiment: Antibacterial activity evaluation test (MIC), broth microdilution, strain ATCC 27853. The note with it: for MIC Pseudomonas aeruginosa strain ATCC 27853: cation-adjusted Mueller-Hinton medium supplemented with 20 M of apotransferrin, 35° C., 16 to 20 hours; for MIC: Pseudomonas aeruginosa, ATCC27853, read-out: MIC Pseudomonas aeruginosa strain ATCC 27853. On the procedure: as §1, §2, §3
The MIC of the Pseudomonas aeruginosa ATCC strain 27853 was measured in the same manner as described above by using a cation-adjusted Mueller-Hinton medium supplemented with […] of apotransferrin as a final concentration.

In assay [3] the test system is Pseudomonas aeruginosa IMP-1-producing strain S-2838. The assay is described as follows: Antibacterial activity evaluation test (MIC), broth microdilution, IMP-1-producing strain S-2838. Particulars: for MIC Pseudomonas aeruginosa strain S-2838: IMP-1-producing strain, cation-adjusted Mueller Hinton medium, 35° C., 16 to 20 hours; for MIC: Pseudomonas aeruginosa, read-out: MIC Pseudomonas aeruginosa strain S-2838. On the procedure: as §1, §2, §3

Regarding `CC(C)(O/N=C(\C(=O)N[C@@H]1C(=O)N2C[C@](SCCNC(=O)C(=O)c3ccc(O)c(O)c3Cl)(C(=O)O)S[C@H]12)c1csc(N)n1)C(=O)O` [Example 1, (3R,5R,6R)-6-((Z)-2-(2-aminothiazol-4-yl)-2-(((2-carboxypropan-2-yl)oxy)imino)acetamide)-3-((2-(2-(2-chloro-3,4-dihydroxyphenyl)-2-oxoacetamide)ethyl)thio)-7-oxo-4-thia-1-azabicyclo[3.2.0]heptane-3-carboxylic acid], the “MIC Pseudomonas aeruginosa strain S-3028” value in assay [1] worked out at 128 µg/mL (≈ 178 µM). Moreover, the “MIC Pseudomonas aeruginosa strain ATCC 27853” value in assay [2] was determined as 0.125 µg/mL (≈ 0.174 µM). The “MIC Pseudomonas aeruginosa strain S-2838” value in assay [3] was 2 µg/mL (≈ 2.79 µM).

With `CC(C)(O/N=C(\C(=O)N[C@@H]1C(=O)N2C[C@](SC3CN(C(=O)C(=O)c4ccc(O)c(O)c4Cl)C3)(C(=O)O)S[C@H]12)c1csc(N)n1)C(=O)O` [Example 2, (3R,5R,6R)-6-((Z)-2-(2-aminothiazol-4-yl)-2-(((2-carboxypropan-2-yl)oxy)imino)acetamide)-3-((1-(2-(2-chloro-3,4-dihydroxyphenyl)-2-oxoacetyl)azetidin-3-yl)thio)-7-oxo-4-thia-1-azabicyclo[3.2.0]heptane-3-carboxylic acid], in assay [1], the “MIC Pseudomonas aeruginosa strain S-3028” value turned out to be 4 µg/mL (≈ 5.49 µM). Moreover, the “MIC Pseudomonas aeruginosa strain ATCC 27853” value in assay [2] was at most 0.0625 µg/mL. Further, in assay [3], the “MIC Pseudomonas aeruginosa strain S-2838” value was determined as 16 µg/mL (≈ 21.9 µM).

For the compound `COC[C@H](CS[C@]1(C(=O)O)CN2C(=O)[C@@H](NC(=O)/C(=N\OC(C)(C)C(=O)O)c3csc(N)n3)[C@H]2S1)NC(=O)C(=O)c1ccc(O)c(O)c1Cl` [Example 3, (3R,5R,6R)-6-((Z)-2-(2-aminothiazol-4-yl)-2-(((2-carboxypropan-2-yl)oxy)imino)acetamide)-3-(((R)-2-(2-(2-chloro-3,4-dihydroxyphenyl)-2-oxoacetamide)-3-methoxypropyl)thio)-7-oxo-4-thia-1-azabicyclo[3.2.0]heptane-3-carboxylic acid], the “MIC Pseudomonas aeruginosa strain S-3028” value in assay [1] turned out to be 0.5 µg/mL (≈ 0.657 µM). For the same compound, the “MIC Pseudomonas aeruginosa strain ATCC 27853” value in assay [2] is at most 0.0625 µg/mL. Moreover, in assay [3], the “MIC Pseudomonas aeruginosa strain S-2838” value was 1 µg/mL (≈ 1.31 µM).

`CC(C)(O/N=C(\C(=O)N[C@@H]1C(=O)N2C[C@](SCCNC(=O)/C(=N\O)c3ccc(O)c(O)c3Cl)(C(=O)O)S[C@H]12)c1csc(N)n1)C(=O)O` [Example 4, (3R,5R,6R)-6-((Z)-2-(2-aminothiazol-4-yl)-2-(((2-carboxypropan-2-yl)oxy)imino)acetamide)-3-((2-((Z)-2-(2-chloro-3,4-dihydroxyphenyl)-2-(hydroxyimino)acetamide)ethyl)thio)-7-oxo-4-thia-1-azabicyclo[3.2.0]heptane-3-carboxylic acid]: the “MIC Pseudomonas aeruginosa strain S-3028” value in assay [1] was 8 µg/mL (≈ 10.9 µM). In assay [2], the “MIC Pseudomonas aeruginosa strain ATCC 27853” value was at most 0.0625 µg/mL. Further, the “MIC Pseudomonas aeruginosa strain S-2838” value in assay [3] worked out at 32 µg/mL (≈ 43.7 µM).

Regarding `CC(C)(O/N=C(\C(=O)N[C@@H]1C(=O)N2C[C@](SC3CN(C(=O)/C(=N\O)c4ccc(O)c(O)c4Cl)C3)(C(=O)O)SC12)c1csc(N)n1)C(=O)O` (stereo partly drawn) [Example 5, (3R,5R,6R)-6-((Z)-2-(2-aminothiazol-4-yl)-2-(((2-carboxypropan-2-yl)oxy)imino)acetamide)-3-((1-((Z)-2-(2-chloro-3,4-dihydroxyphenyl)-2-(hydroxyimino)acetyl)azetidin-3-yl)thio)-7-oxo-4-thia-1-azabicyclo[3.2.0]heptane-3-carboxylic acid], the minimal inhibitory concentration (MIC) (in general, the lowest concentration that inhibits growth of the organism) in assay [1] was 8 µg/mL (≈ 10.8 µM); in assay [2], at most 0.0625 µg/mL; in assay [3], 16 µg/mL (≈ 21.5 µM).

In the case of `CO[C@@H](CNC(=O)C(=O)c1ccc(O)c(O)c1Cl)CS[C@]1(C(=O)O)CN2C(=O)[C@@H](NC(=O)/C(=N\OC(C)(C)C(=O)O)c3csc(N)n3)C2S1` (stereo partly drawn) [Example 6, (3R,5R,6R)-6-((Z)-2-(2-aminothiazol-4-yl)-2-(((2-carboxypropane-2-yl)oxy)imino)acetamide)-3-(((S)-3-(2-(2-chloro-3,4-dihydroxyphenyl)-2-oxoacetamide)-2-methoxypropyl)thio)-7-oxo-4-thia-1-azabicyclo[3.2.0]heptane-3-carboxylic acid], the figures for the minimal inhibitory concentration (MIC) in assay [1], in assay [2] and in assay [3] were 4 µg/mL (≈ 5.25 µM), 0.25 µg/mL (≈ 0.328 µM) and 2 µg/mL (≈ 2.63 µM), respectively.

In the case of `CC(C)(O/N=C(\C(=O)N[C@@H]1C(=O)N2C[C@](SCCNC(=O)C(=O)c3ccc(O)c(O)c3)(C(=O)O)S[C@H]12)c1csc(N)n1)C(=O)O` [Example 7, (3R,5R,6R)-6-((Z)-2-(2-aminothiazol-4-yl)-2-(((2-carboxypropane-2-yl)oxy)imino)acetamide)-3-((2-(2-(3,4-dihydroxyphenyl)-2-oxoacetamide)ethyl)thio)-7-oxo-4-thia-1-azabicyclo[3.2.0]heptane-3-carboxylic acid], in assay [1], the “MIC Pseudomonas aeruginosa strain S-3028” value amounted to 16 µg/mL (≈ 23.4 µM). The “MIC Pseudomonas aeruginosa strain ATCC 27853” value in assay [2] worked out at 0.125 µg/mL (≈ 0.183 µM). Further, the “MIC Pseudomonas aeruginosa strain S-2838” value in assay [3] stood at 4 µg/mL (≈ 5.86 µM).

As for `CN/N=C(\C(=O)NCCS[C@]1(C(=O)O)CN2C(=O)[C@@H](NC(=O)/C(=N\OC(C)(C)C(=O)O)c3csc(N)n3)[C@H]2S1)c1ccc(O)c(O)c1Cl` [Example 8, (3R,5R,6R)-6-((Z)-2-(2-aminothiazol-4-yl)-2-(((2-carboxypropan-2-yl)oxy)imino)acetamide)-3-((2-((Z)-2-(2-chloro-3,4-dihydroxyphenyl)-2-(2-methylhydrazono)acetamide)ethyl)thio)-7-oxo-4-thia-1-azabicyclo[3.2.0]heptane-3-carboxylic acid], the MIC is 2 µg/mL (≈ 2.68 µM) in assay [1], at most 0.0625 µg/mL in assay [2] and 0.25 µg/mL (≈ 0.335 µM) in assay [3].

For the compound `CC(C)(O/N=C(\C(=O)N[C@@H]1C(=O)N2C[C@](SCCNC(=O)/C(=N/N3CCOCC3)c3ccc(O)c(O)c3Cl)(C(=O)O)S[C@H]12)c1csc(N)n1)C(=O)O` [Example 10, (3R,5R,6R)-6-((Z)-2-(2-aminothiazole-4-yl)-2-(((2-carboxypropan-2-yl)oxy)imino)acetamide)-3-((2-((E)-2-(2-chloro-3,4-dihydroxyphenyl)-2-(morpholinoimino)acetamide)ethyl)thio)-7-oxo-4-thia-1-azabicyclo[3.2.0]heptane-3-carboxylic acid], the figures for the minimum inhibitory concentration (MIC) in assay [1], in assay [2] and in assay [3] were over 128 µg/mL, 1 µg/mL (≈ 1.25 µM) and 32 µg/mL (≈ 39.9 µM), respectively.

Regarding `CC(C)(O/N=C(\C(=O)N[C@@H]1C(=O)N2C[C@](SC3CN(C(=O)C(=NNC(N)=O)c4ccc(O)c(O)c4Cl)C3)(C(=O)O)S[C@H]12)c1csc(N)n1)C(=O)O` [Example 11, (3R,5R,6R)-6-((Z)-2-(2-aminothiazol-4-yl)-2-(((2-carboxypropan-2-yl)oxy)imino)acetamide)-3-((1-((Z)-2-(2-carbamoylhydrazono)-2-(2-chloro-3,4-dihydroxyphenyl)acetyl)azetidin-3-yl)thio)-7-oxo-4-thia-1-azabicyclo[3.2.0]heptane-3-carboxylic acid], the MIC was 1 µg/mL (≈ 1.27 µM) in assay [1], at most 0.0625 µg/mL in assay [2] and 2 µg/mL (≈ 2.54 µM) in assay [3].

As to `CC(C)(O/N=C(\C(=O)N[C@@H]1C(=O)N2C[C@](SCCNC(=O)/C(=N\NC(N)=O)c3ccc(O)c(O)c3Cl)(C(=O)O)S[C@H]12)c1csc(N)n1)C(=O)O` [Example 12], the MIC in assay [1] was 16 µg/mL (≈ 20.7 µM); in assay [2], at most 0.0625 µg/mL; in assay [3], 4 µg/mL (≈ 5.17 µM).

For the compound `CC(C)(O/N=C(\C(=O)N[C@@H]1C(=O)N2C[C@](SCCNC(=O)/C(=N/NC(N)=O)c3ccc(O)c(O)c3Cl)(C(=O)O)S[C@H]12)c1csc(N)n1)C(=O)O` [Example 13, (3R,5R,6R)-6-((Z)-2-(2-aminothiazole-4-yl)-2-(((2-carboxypropan-2-yl)oxy)imino)acetamide)-3-((2-((E)-2-(2-carbamoylhydrazono)-2-(2-chloro-3,4-dihydroxyphenyl)acetamide)ethyl)thio)-7-oxo-4-thia-1-azabicyclo[3.2.0]heptane-3-carboxylic acid], the MIC in assay [1] is 16 µg/mL (≈ 20.7 µM); in assay [2] it was at most 0.0625 µg/mL; in assay [3], 8 µg/mL (≈ 10.3 µM).

In the case of `CC(C)(O/N=C(\C(=O)N[C@@H]1C(=O)N2C[C@](SCCNC(=O)/C(=N\NC(N)=O)c3ccc(O)c(O)c3)(C(=O)O)S[C@H]12)c1csc(N)n1)C(=O)O` [Example 14, (3R,5R,6R)-6-((Z)-2-(2-aminothiazol-4-yl)-2-(((2-carboxypropane-2-yl)oxy)imino)acetamide)-3-((2-(2-(2-carbamoylhydrazono)-2-(3,4-dihydroxyphenyl)acetamide)ethyl)thio)-7-oxo-4-thia-1-azabicyclo[3.2.0]heptane-3-carboxylic acid], the MIC in assay [1] stood at 32 µg/mL (≈ 43.3 µM); in assay [2], 0.25 µg/mL (≈ 0.338 µM); in assay [3] it was 1 µg/mL (≈ 1.35 µM).

With `CO[C@@H](CNC(=O)/C(=N/NC(N)=O)c1ccc(O)c(O)c1Cl)CS[C@]1(C(=O)O)CN2C(=O)[C@@H](NC(=O)/C(=N\OC(C)(C)C(=O)O)c3csc(N)n3)[C@H]2S1` [Example 16, (3R,5R,6R)-6-((Z)-2-(2-aminothiazole-4-yl)-2-(((2-carboxypropan-2-yl)oxy)imino)acetamide)-3-(((S)-3-((E)-2-(2-carbamoylhydrazono)-2-(2-chloro-3,4-dihydroxyphenyl)acetamide)-2-methoxypropyl)thio)-7-oxo-4-thia-1-azabicyclo[3.2.0]heptane-3-carboxylic acid], the MIC in assay [1] is 16 µg/mL (≈ 19.6 µM); in assay [2], 0.5 µg/mL (≈ 0.611 µM); in assay [3], 8 µg/mL (≈ 9.78 µM).
